Source: PubChem BioAssay AID1845204 (Molecular Pharmacology Branch, DTP, NCI, 2023)
“And” between values parts separate entries of the source, which are not always exact repeats. Identical values can stand only once.

System: HSSY-II tumor spheroid viability
Assay: Anticancer human tumor HSSY-II cell line growth inhibition;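 note: spheroids exposed to compounds for seven days before reading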;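 for viability, T/C: percent of DMSO vehicle control viability so 100% = untreated level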
Conditions: spheroids with HUVEC and MSC; for viability, T/C: stronger effect = lower value
Text: Multicellular complex tumor spheroid response to DNA repair inhibitors in combination with DNA-damaging drugs
This study explores the anticancer activities of DNA-damaging drugs and inhibitors of DNA damage repair, both as single agents and in combinations. Complex tumor spheroids comprised of malignant cells, endothelial cells and mesenchymal stem cells served as an in vitro model for human solid tumors. This model system incorporates physiologically relevant features and patient-derived or established malignant cell lines with clinically relevant genetic alterations from many tumor types. Twenty-six patient-derived or established malignant cell lines were evaluated representing sarcoma, melanoma, small cell lung cancer (SCLC), non-small cell lung cancer (NSCLC), as well as bladder, ovarian and pancreatic cancers. The concentration ranges selected for each drug and investigational agent were based upon clinically achievable concentrations if the clinical Cmax of the agent was known.
Compounds. The drugs and compounds olaparib (NSC753686), talazoparib (NSC767125), berzosertib (NSC777718), elimusertib (NSC800525), nedisertib (NSC802822), VX-984 (NSC792969), AZD-1390 (NSC803789), temozolomide (NSC362856), topotecan (NSC609699), trabectedin (NSC813783), staurosporine (NSC755774), and gemcitabine (NSC613327) were obtained from the National Cancer Institute (NCI) Developmental Therapeutics Program Chemical Repository. The FDA-approved anticancer drug set is available from the Developmental Therapeutics Program at https://dtp.cancer.gov/organization/dscb/obtaining/available_plates.htm. […] The stock solutions were prepared in dimethyl sulfoxide (DMSO, Sigma-Aldrich, St. Louis, MO, cat. D2650) at 400-fold the tested concentration and stored at -70 degrees C. Prior to their use, the stock solutions were diluted in fresh medium and the final DMSO concentration in the assay was 0.25% (v/v). All drugs and investigational agents were tested over a range starting from a high concentration at or near the clinical Cmax and decreasing in half-log increments. If the clinical Cmax for an agent had not been determined, the highest concentration tested was 10 microM.
Cell Lines. The patient-derived cancer cell (PDC) lines: 156681-154-R-J1-PDC, 283228-195-R-J1-PDC, 287954-098-R-J1-PDC, 292921-168-R-J2-PDC, 349418-098-R-PDC, 425362-245-T-J1-PDC, 556581-035-R-J1-PDC, and BL0293-F563-PDC were received from the NCI Patient-Derived Models Repository (PDMR, https://pdmr.cancer.gov). The established cell lines HS-SY-2 (RRID:CVCL_8719), MPNST, and SYO-1 (RRID:CVCL_7146) were obtained from the Sloan Kettering Institute. The alveolar soft parts sarcoma cell line ASPS-1 (RRID:CVCL_S738) was established at the NCI and grown from internal seed stocks. The following established cell lines were purchased from the American Type Culture Collection (ATCC, Manassas, VA): G-401 (ATCC, cat. CRL-1441, RRID:CVCL_0270), SW982 (ATCC, cat. HTB-93, RRID:CVCL_1734), VA-ES-BJ (ATCC, cat. CRL-2138, RRID:CVCL_1785), NCI-H719 (ATCC, cat. CRL-5837, RRID:CVCL_1582), NCI-H196 (ATCC, cat. CRL-5823, RRID:CVCL_1509), NCI-H841 (ATCC, cat. CRL-5845, RRID:CVCL_1595), NCI-H1618 (ATCC, cat. CRL-5879, RRID:CVCL_1480), NCI-H1876 (ATCC, cat. CRL-5902, RRID:CVCL_1503), DMS 114 (ATCC, cat. CRL-2066; RRID:CVCL_1174), NCI-H211 (ATCC, cat. CRL-5824; RRID:CVCL_1529), and SW 1271 (ATCC, cat. CRL-2177, RRID:CVCL_1716). The small cell lung cancer cell line COR-L88 was purchased from Sigma-Aldrich (cat. 92031917-1VL, RRID:CVCL_1141). The non-small cell lung cancer cell lines NCI-H226 (RRID:CVCL_1544) and NCI-H322M (RRID:CVCL_1557) were established at the NCI and grown from internal seed stocks. Pooled donor human umbilical vein endothelial cells (HUVEC, Lonza, cat. CC-2519) and human mesenchymal stem cells (hMSC, Lonza, cat. PT-2501) were purchased from Lonza (Walkersville, MD).
Cell Culture. All cells were maintained in an incubator at 37 degrees C and 5% CO2 with 95% humidity. […]

Q: What does the source list for `Cn1ncnc1[C@H]1c2n[nH]c(=O)c3cc(F)cc(c23)N[C@@H]1c1ccc(F)cc1`?
A: viability, T/C (compound 0.00949 µM): 76.5% and 87.8% and 78.8%; viability, T/C (compound 0.03 µM): 64.8% and 81.5% and 64.3%; viability, T/C (compound 0.0949 µM): 40.7% and 58.8% and 46.4%; viability, T/C (compound 0.3 µM): 15.3% and 25.6% and 20.6%; viability, T/C (compound 0.949 µM): 6.4% and 9.46% and 9.61%; viability, T/C (compound 3 µM): 4.87% and 8.07% and 6.62%; IC50 (curve of compound): 60.5 nM and 129 nM and 70.4 nM

Q: Which results are given for `Cn1ncnc1[C@H]1c2n[nH]c(=O)c3cc(F)cc(c23)N[C@@H]1c1ccc(F)cc1` + CC[C@@]1(O)C(=O)OCc2c1cc1n(c2=O)Cc2cc3c(CN(C)C)c(O)ccc3nc2-1?
A: IC50 (curve of first compound, second compound 0.003 µM): < 9.49 nM; IC50 (curve of first compound, second compound 0.00949 µM): < 9.49 nM; IC50 (curve of first compound, second compound 0.03 µM): < 9.49 nM; IC50 (curve of first compound, second compound 0.0949 µM): < 9.49 nM; IC50 (curve of first compound, second compound 0.3 µM): < 9.49 nM; viability, T/C (second compound 0.003 µM, first compound 0.00949 µM): 29.2%; viability, T/C (second compound 0.003 µM, first compound 0.03 µM): 16.7%; viability, T/C (second compound 0.003 µM, first compound 0.0949 µM): 9.97%; viability, T/C (second compound 0.003 µM, first compound 0.3 µM): 6.78%; viability, T/C (second compound 0.003 µM, first compound 0.949 µM): 5.19%; viability, T/C (second compound 0.003 µM, first compound 3 µM): 4.32%; viability, T/C (second compound 0.00949 µM, first compound 0.00949 µM): 7.72%; viability, T/C (second compound 0.00949 µM, first compound 0.03 µM): 5.97%; viability, T/C (second compound 0.00949 µM, first compound 0.0949 µM): 5.6%; viability, T/C (second compound 0.00949 µM, first compound 0.3 µM): 5.88%; viability, T/C (second compound 0.00949 µM, first compound 0.949 µM): 5.84%; viability, T/C (second compound 0.00949 µM, first compound 3 µM): 3.69%; viability, T/C (second compound 0.03 µM, first compound 0.00949 µM): 5.64%; viability, T/C (second compound 0.03 µM, first compound 0.03 µM): 5.6%; viability, T/C (second compound 0.03 µM, first compound 0.0949 µM): 5.25%; viability, T/C (second compound 0.03 µM, first compound 0.3 µM): 5.52%; viability, T/C (second compound 0.03 µM, first compound 0.949 µM): 4.93%; viability, T/C (second compound 0.03 µM, first compound 3 µM): 3.48%; viability, T/C (second compound 0.0949 µM, first compound 0.00949 µM): 4.26%; viability, T/C (second compound 0.0949 µM, first compound 0.03 µM): 4.04%; viability, T/C (second compound 0.0949 µM, first compound 0.0949 µM): 3.48%; viability, T/C (second compound 0.0949 µM, first compound 0.3 µM): 3.91%; viability, T/C (second compound 0.0949 µM, first compound 0.949 µM): 3.43%; viability, T/C (second compound 0.0949 µM, first compound 3 µM): 2.72%; viability, T/C (second compound 0.3 µM, first compound 0.00949 µM): 3.45%; viability, T/C (second compound 0.3 µM, first compound 0.03 µM): 4.01%; viability, T/C (second compound 0.3 µM, first compound 0.0949 µM): 3.37%; viability, T/C (second compound 0.3 µM, first compound 0.3 µM): 3.5%; viability, T/C (second compound 0.3 µM, first compound 0.949 µM): 2.94%; viability, T/C (second compound 0.3 µM, first compound 3 µM): 2.13%

Q: How did the viability, T/C (compound 1 µM) turn out when `Cn1nnc2c(C(N)=O)ncn2c1=O` was run?
A: Its viability, T/C is 100% [middle of 10 runs].

Q: What about the viability, T/C (compound 3.16 µM) of the same compound?
A: The viability, T/C was 104% [middle of 10 runs].

Q: And the viability, T/C (compound 10 µM)?
A: Its viability, T/C is 102% [middle of 10 runs].

Q: What about the viability, T/C (compound 31.6 µM) of the same compound?
A: The viability, T/C was 103% [middle of 10 runs].

Q: And the viability, T/C (compound 100 µM)?
A: Its viability, T/C is 93.4% [middle of 10 runs].

Q: What about the IC50 (compound alone, run of 12/02/2019) of the same compound?
A: Its IC50 is over 100000 nM.
